From ChEMBL document CHEMBL1123770, “Systematic synthesis and biological evaluation of alpha- and beta-D-lyxofuranosyl nucleosides of the five naturally occurring nucleic acid bases” (1987)
≈ marks a conversion by molar mass, not a printed value.

How the values were obtained:
Oryctolagus cuniculus [1] = species: Oryctolagus cuniculus; experiment: Minimum inhibitory concentration (MIC) required to reduce virus-induced cytopathogenicity by 50% against KOS strain of Herpes simplex virus-1 in primary rabbit kidney cells; assay type: functional
Vero [2] = experiment: Minimum inhibitory concentration (MIC) required to reduce virus-induced cytopathogenicity by 50% against Parainfluenza virus-3 in African green monkey kidney (Vero B)cells; assay type: functional, Chlorocebus sabaeus; settings: Chlorocebus sabaeus; read-out: MIC
WI-38 [3] = experiment: Minimum cytotoxic concentration (MCC) required to cause a microscopically detectable alteration of host cell morphology, when incubated with WI-38 cells; assay type: functional; settings: Homo sapiens
[4] = Minimum cytotoxic concentration (MCC) required to cause a microscopically detectable alteration of host cell morphology, when incubated with PRK cells; assay type: functional; settings: Oryctolagus cuniculus
WI-38 [5] = experiment: Minimum inhibitory concentration (MIC) required to reduce virus-induced cytopathogenicity by 50% against Rhinovirus 9 in human diploid (WI-38)cells; assay type: functional; settings: Homo sapiens; read-out: MIC
Vero [6] = experiment: Minimum inhibitory concentration (MIC) required to reduce virus-induced cytopathogenicity by 50% against Reo virus-1 in African green monkey kidney (Vero B)cells; assay type: functional, Chlorocebus sabaeus; settings: Chlorocebus sabaeus; read-out: MIC
Vero [7] = experiment: Minimum inhibitory concentration (MIC) required to reduce virus-induced cytopathogenicity by 50% against forest virus in African green monkey kidney (Vero B)cells; assay type: functional; settings: Chlorocebus sabaeus
HeLa [8] = experiment: Minimum cytotoxic concentration (MCC) required to cause a microscopically detectable alteration of host cell morphology, when incubated with HeLa cells; assay type: functional; settings: Homo sapiens
Oryctolagus cuniculus [9] = species: Oryctolagus cuniculus; experiment: Minimum inhibitory concentration (MIC) required to reduce virus-induced cytopathogenicity by 50% against G strain of Herpes simplex virus-2 in primary rabbit kidney cells; assay type: functional; settings: Oryctolagus cuniculus; read-out: MIC
HeLa [10] = experiment: Minimum inhibitory concentration (MIC) required to reduce virus-induced cytopathogenicity by 50% against Coxsackie virus B4 in HeLa cells; assay type: functional; settings: Homo sapiens
WI-38 [11] = experiment: Minimum inhibitory concentration (MIC) required to reduce virus-induced cytopathogenicity by 50% against Rhinovirus-1A in human diploid (WI-38)cells; assay type: functional
Vero [12] = experiment: Minimum cytotoxic concentration (MCC) required to cause a microscopically detectable alteration of host cell morphology, when incubated with Vero B cells; assay type: functional; settings: Chlorocebus sabaeus
Vero [13] = experiment: Minimum inhibitory concentration (MIC) required to reduce virus-induced cytopathogenicity by 50% against Coxsackie virus B4 in African green monkey kidney (Vero B)cells; assay type: functional, Chlorocebus sabaeus; settings: Chlorocebus sabaeus; read-out: MIC
Vero [14] = experiment: Minimum inhibitory concentration (MIC) required to reduce virus-induced cytopathogenicity by 50% against Sindbis virus in African green monkey kidney (Vero B)cells; assay type: functional; settings: Chlorocebus sabaeus
Oryctolagus cuniculus [15] = species: Oryctolagus cuniculus; experiment: Minimum inhibitory concentration (MIC) required to reduce virus-induced cytopathogenicity by 50% against Vaccinia virus in primary rabbit kidney cells; assay type: functional; settings: Oryctolagus cuniculus; read-out: MIC

Row | Compound | MIC (Oryctolagus cuniculus [1]) | MIC (Vero [2]) | MCC (WI-38 [3]) | MCC [4] | MIC (WI-38 [5]) | MIC (Vero [6]) | MIC (Vero [7]) | MCC (HeLa [8]) | MIC (Oryctolagus cuniculus [9]) | MIC (HeLa [10]) | MIC (WI-38 [11]) | MCC (Vero [12]) | MIC (Vero [13]) | MIC (Vero [14]) | MIC (Oryctolagus cuniculus [15])
1 | Nc1nc2c(ncn2[C@H]2O[C@H](CO)[C@H](O)[C@@H]2O)c(=O)[nH]1 | > 400 µg/mL | > 400 µg/mL | > 400 µg/mL | > 400 µg/mL | 200 µg/mL (≈ 706 µM) | > 400 µg/mL | > 400 µg/mL | > 400 µg/mL | > 400 µg/mL | > 400 µg/mL | > 400 µg/mL | > 400 µg/mL | > 400 µg/mL | > 400 µg/mL | –
2 | O=c1ccn([C@H]2O[C@H](CO)[C@H](O)[C@@H]2O)c(=O)[nH]1 | > 400 µg/mL | > 400 µg/mL | > 400 µg/mL | > 400 µg/mL | > 400 µg/mL | > 200 µg/mL | > 400 µg/mL | > 400 µg/mL | > 400 µg/mL | > 400 µg/mL | > 400 µg/mL | > 400 µg/mL | > 400 µg/mL | > 400 µg/mL | –
3 | Nc1nc2c(ncn2[C@@H]2O[C@H](CO)[C@H](O)[C@@H]2O)c(=O)[nH]1 | > 400 µg/mL | > 400 µg/mL | > 400 µg/mL | > 400 µg/mL | > 400 µg/mL | > 400 µg/mL | > 400 µg/mL | > 400 µg/mL | 400 µg/mL (≈ 1410 µM) | > 400 µg/mL | > 400 µg/mL | > 400 µg/mL | > 400 µg/mL | > 400 µg/mL | 100 µg/mL (≈ 353 µM)
4 | Nc1ccn([C@H]2O[C@H](CO)[C@H](O)[C@@H]2O)c(=O)n1 | > 400 µg/mL | > 400 µg/mL | > 400 µg/mL | > 400 µg/mL | > 400 µg/mL | > 400 µg/mL | > 400 µg/mL | > 400 µg/mL | > 400 µg/mL | > 400 µg/mL | > 400 µg/mL | > 400 µg/mL | > 400 µg/mL | > 400 µg/mL | –
5 | O=c1ccn([C@@H]2O[C@H](CO)[C@H](O)[C@@H]2O)c(=O)[nH]1 | > 400 µg/mL | > 400 µg/mL | > 400 µg/mL | > 400 µg/mL | 100 µg/mL (≈ 409 µM) | > 400 µg/mL | > 400 µg/mL | > 400 µg/mL | > 400 µg/mL | > 400 µg/mL | > 400 µg/mL | > 400 µg/mL | > 100 µg/mL | > 400 µg/mL | –
6 | Cc1cn([C@H]2O[C@H](CO)[C@H](O)[C@@H]2O)c(=O)[nH]c1=O | > 400 µg/mL | > 400 µg/mL | > 400 µg/mL | > 400 µg/mL | > 400 µg/mL | > 200 µg/mL | > 400 µg/mL | > 400 µg/mL | > 400 µg/mL | > 400 µg/mL | > 400 µg/mL | > 400 µg/mL | > 400 µg/mL | > 400 µg/mL | –
